{"source": "patent US20230348506A1", "about": "“MACROCYCLIC PANTETHEINE DERIVATIVES AND USES THEREOF” (VectivBio Comet AG, priority 2019, published 2023)", "type_in_all_cases": "cell-based, human", "key": {"[1]": {"test_system": "primary adherent fibroblast cell line derived from an Methylmalonic Acidemia (MMA) patient (GM01673, Coriell Institute for Medical Research)", "experiment": "Mitochondrial respiration (Seahorse XFe96, OCR), Spare Capacity AUC", "conditions": "10 μM compound; medium with 10 mM glucose, 2 mM glutamine, 1 mM pyruvate; 1 μM FCCP for 20 cycles; relative to vehicle", "procedure": "The effect of the compounds of the present disclosure on mitochondrial respiration was measured with a XFe96 Extracellular Flux Analyzer (Seahorse Bioscience, Agilent Technologies) and Oxygen consumption Rate (OCR) and Extracellular acidification rate (ECAR) determined.\nCell culture and treatments. Primary adherent fibroblasts were cultured in minimum essential medium (MEM) (Gibco, 25030081) supplemented with 2 mM L-Glutamine (Gibco, 25030081), 15% fetal bovine serum (FBS) (Gibco, 26400044) and 1% penicillin/streptomycin (Gibco, 5140122) at 37° C. and 5% CO2. Cells were collected for either passaging or experiment at ˜70-80% confluence. Cells were obtained by trypsinization and seeded at 10,000 cells/well in cell culture microplates (Seahorse Bioscience, 101085-004) and allowed to adhere for 48 hours in culture media. […]\nDetermining the optimized cell density and concentrations for stress test, such as FCCP, were achieved through methods well known to those of skill in the art. After baseline measurements of OCR, cells were challenged with compounds of the present disclosure at different concentrations (10 to 50 μM) or vehicle (DMSO, 0.1%) and a post-compound baseline was recorded. OCR was measured after sequentially adding to each well 1.5 μg/ml oligomycin (inhibitor of ATP synthase Sigma-Aldrich, 753531), then maximal OCR was determined with carbonyl cyanide 4-(trifluoromethoxy) phenylhydrazone (FCCP, Sigma-Aldrich, C2920), (uncoupler of oxidative phosphorylation) and 1.0 μM of rotenone (Sigma-Aldrich, R8875) plus antimycin A (Sigma-Aldrich, A8674) (inhibitors of mitochondrial complex I and III) for determination of rotenone-antimycin insensitive respiration together with Hoechst for nuclear staining in situ when normalized to cell counts. After the analysis and nuclear staining, the XFp microplate was transferred to the Cytation 5, and the nuclear images were captured, the individual nuclei were identified and counted by BioTek Gen5 software. […]"}, "[2]": {"test_system": "MMA Patient fibroblasts (GM01673, Coriell Institute for Medical Research)", "experiment": "Mitochondrial fusion and networking (high-content imaging)", "parameters": "key: Mitochondrial elongation and networking was described as slight, mild or good; Mitochondrial elongation and networking was described as slight, mild or good; Mitochondrial elongation and networking was described as slight, mild or good", "conditions": "10 μM compound, 2 hours, compared to vehicle control", "procedure": "Cells were seeded in 96-well plates (density 3000 cells/well) in culture minimum MEM (GIBCO, 10370-021) supplemented with 2 mM L-Glutamine (Thermo Fisher Scientific), 15% FBS (Thermo Fisher Scientific 26400044) and 1% penicillin/streptomycin. Cells were incubated for 48 hours (37° C, 5% CO2), then treated with 10 μM compounds from the present disclosure, 1% DMSO (vehicle) or 5 μM FCCP (control) for 2 hours in fasted conditional medium: Agilent XF DMEM (Agilent 103575-100), pH 7.4 supplemented with 10% FBS (Thermo Fisher Scientific 26400044), 0.03% penicillin/streptomycin 1 mM glucose, 2 mM L-glutamine and 1 mM pyruvate.\nAfter treatment, media was removed, and cells were stained with 100 μl of 1×mixture dye solution of 1 μg/mL JC-1 (Invitrogen Cat #T3168) and 50 ng/ml MitoTracker deep red (Invitrogen Cat #M22426) at 37° C. for 30 minutes. Next, staining was removed, the cells were washed once with 150 μl PBS, and 150 μl of fasted conditional medium (described above) is added to each well. Analysis was carried out on live cells using a Thermo Scientific CellInsight CX7 LZR High-Content Screening Platform. Mitochondrial elongation and networking was described as slight, mild or good."}, "[3]": {"test_system": "HepG2 cells", "experiment": "Glucose uptake (Glucose Uptake-Glo assay)", "conditions": "10 μM compound; insulin control 100 nM", "procedure": "The effect of compounds from the present disclosure on glucose uptake was determined in HepG2 cells (ATCC, HB-8065) using the glucose uptake Glo Assay Kit (Promega, J1343 according to manufacturer instructions. HepG2 cells were cultured in complete DMEM-glucose media (Gibco) supplemented with 10% FBS (37° C. incubator with 5% CO2) and seeded in 96-well plates at 30,000 cells/well. After removing the complete media, 100 μL/well of serum-free, high-glucose DMEM media were added to the wells and incubated overnight (37° C. incubator with 5% CO2). Media was then replaced with 100 μL/well DPBS containing 0.6% BSA and starved for 1 hour. Next, DPBS was removed and 45 μl/well of insulin (100 nM) or compounds (10 μM-50 μM) were added to the wells and incubated for 10 minutes (37° C. incubator with 5% CO2). Insulin and compounds were prepared in DPBS with 0.6% BSA with a final DMSO concentration of 0.1%. Next, 5 μL of 2DG (10 mM) in DPBS were added per well and allowed to incubate for 20 minutes followed by addition of 25 μL stop buffer. 37.5 μL of the mixture were then transferred to a new plate and 12.5 μL of Neutralization buffer added to the wells. After, 50 μL of 2DG6P detection Reagent were added and incubated for 0.5-1 hour at room temperature. Luminescence was measured with 0.3-1 second integration on a luminometer. […]"}}, "data": [{"compound": "CC(C)(CO)[C@H]1OC(=O)CCC(=O)SCCNC(=O)CCNC1=O", "note": "[Compound 61, (R)-2-(1-hydroxy-2-methylpropan-2-yl)-1-oxa-11-thia-4,8-diazacyclopentadecane-3,7,12,15-tetraone]", "values": [{"measurement": "increase of Spare Capacity AUC", "setting": "[1]", "result": "> 20", "unit": "%"}, {"measurement": "mitochondrial elongation and networking", "setting": "[2]", "result": "slight"}, {"measurement": "stimulation of Glucose Uptake, % of insulin control", "setting": "[3]", "result": "at least 15%"}]}]}
